These are literature values, as cited in patent US20240245680A1, “Methods of Treating Retinal Vasculopathies” (Unity Biotechnology, Inc., priority 2021, published 2024).

One data set addresses T1, glutaminase C (GAC) (Homo sapiens, UniProt O94925).
T1 sequence (O94925 55-598 isoform O94925-3 limits assumed): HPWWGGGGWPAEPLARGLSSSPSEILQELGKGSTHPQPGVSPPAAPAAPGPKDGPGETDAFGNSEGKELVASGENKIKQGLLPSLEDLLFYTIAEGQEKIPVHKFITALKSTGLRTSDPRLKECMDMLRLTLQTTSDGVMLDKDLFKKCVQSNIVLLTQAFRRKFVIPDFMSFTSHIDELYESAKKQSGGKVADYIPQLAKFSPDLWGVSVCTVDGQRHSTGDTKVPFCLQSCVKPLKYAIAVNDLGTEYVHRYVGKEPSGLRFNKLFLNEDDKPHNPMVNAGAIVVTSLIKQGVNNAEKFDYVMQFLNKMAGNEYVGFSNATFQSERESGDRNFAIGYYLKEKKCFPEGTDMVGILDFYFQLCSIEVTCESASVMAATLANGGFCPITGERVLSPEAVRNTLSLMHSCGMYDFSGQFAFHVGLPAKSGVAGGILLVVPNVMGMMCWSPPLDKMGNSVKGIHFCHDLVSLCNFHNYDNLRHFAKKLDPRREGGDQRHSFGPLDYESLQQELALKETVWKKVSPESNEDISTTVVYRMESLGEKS
Particulars: cited from earlier work.

The next data set concerns the target T2, GLS2 (Homo sapiens, UniProt Q9UI32).
T2 sequence (Q9UI32 15-602): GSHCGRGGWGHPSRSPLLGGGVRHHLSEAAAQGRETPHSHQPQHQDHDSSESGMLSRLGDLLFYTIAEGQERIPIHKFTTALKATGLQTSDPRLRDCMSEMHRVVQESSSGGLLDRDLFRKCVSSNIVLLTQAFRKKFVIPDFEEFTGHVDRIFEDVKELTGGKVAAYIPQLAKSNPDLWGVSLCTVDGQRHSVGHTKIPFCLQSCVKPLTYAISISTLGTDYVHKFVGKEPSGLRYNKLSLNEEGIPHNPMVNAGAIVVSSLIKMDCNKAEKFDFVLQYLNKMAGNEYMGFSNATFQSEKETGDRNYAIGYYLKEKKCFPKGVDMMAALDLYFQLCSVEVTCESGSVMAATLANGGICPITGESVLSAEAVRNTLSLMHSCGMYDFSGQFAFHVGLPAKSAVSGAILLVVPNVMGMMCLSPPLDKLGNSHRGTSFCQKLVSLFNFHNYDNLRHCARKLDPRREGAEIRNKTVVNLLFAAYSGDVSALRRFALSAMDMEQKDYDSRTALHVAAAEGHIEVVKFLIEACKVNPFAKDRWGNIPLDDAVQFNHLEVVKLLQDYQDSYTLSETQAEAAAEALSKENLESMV
Particulars: cited from earlier work.

On to `O=C(Cc1ccccc1)Nc1nnc(NC2CCN(c3nnc(NC(=O)Cc4ccccc4)s3)CC2)s1` [UPGL00004], for which, at glutaminase C (GAC), the IC50 is 29 nM. Moreover, the “selectivity for GAC over GLS2” value on GLS2 was “high selectivity”.
